In ChEMBL document CHEMBL1152127, “Kinetic isotope effects in the oxidation of arachidonic acid by soybean lipoxygenase-1” (Bioorg Med Chem Lett, 2008) one finds Km and Activity data, which are given here for 2 compounds.

For assay [1], the system named is Glycine max. Description: Activity of soybean lipoxygenase 1.
The subject of assay [2] is Glycine max. In words: Activity of soybean lipoxygenase 1 assessed as rate of oxidation under diffusion-controlled reaction at 5 deg C.
The test system of assay [3] is Glycine max. In words: Activity of soybean lipoxygenase 1 assessed as rate of oxidation under diffusion-controlled reaction at 20 deg C.
The test system of assay [4] is Glycine max. Description: Activity of soybean lipoxygenase 1 assessed as rate of oxidation under diffusion-controlled reaction at 37 deg C.

As usually defined, the Km is the substrate concentration at which the rate is half of its maximum. For `CCCCC/C=C\C/C=C\CCCCCCCC(=O)O`, in the assay with Glycine max [1], the Km was 39 µM.

In the case of `CCCCC/C=C\C/C=C\C/C=C\C/C=C\CCCC(=O)O`, the Activity in the assay on Glycine max [2] is 18%; in the assay on Glycine max [3], 56%; in the assay with Glycine max [4], 28%. Moreover, the Km in the assay with Glycine max [1] was determined as 15 µM.
